# Results from patent US10189887B2, “Polypeptides and uses thereof for reducing CD95-mediated cell motility” (INSERM (INSTITUT NATIONAL DE LA SANTÉ ET DE LA RECHERCHE …, priority 2014, dated 2019).
# Experiments:
# [1] = tested on: CD95-mediated Ca^2+ response; assay: Calcium response to cl-CD95L in activated PBL; type: cell-based, human; conditions: activated PBL pre-incubated 1 hr, 10 μM peptide, 100 ng/ml cl-CD95L
# Method: Cells were loaded with Fura2-AM (1 μM) at resting temperature for 30 min in Hank's Balanced Salt Solution (HBSS). After washing with HBSS, the cells were incubated for 15 min in the absence of Fura2-AM to complete de-esterification of the dye. Cells were placed in a thermostated chamber (37° C.) of an inverted epifluorescence microscope (Olympus IX70) equipped with a ×40, UApo/340-1.15 W water-immersion objective (Olympus), and fluorescence micrograph images were captured at 510 nm and at 12-bit resolution by a fast-scan camera (CoolSNAP fx Monochrome, Photometrics). To minimize UV light exposure, 4×4 binning function was used. Fura2-AM was alternately excited at 340 and 380 nm, and ratios of the resulting images (excitations at 340 and 380 nm and emission filter at 520 nm) were produced at constant intervals (5 s or 10 s according to the stimulus). […] Fluorescent images were pseudocolored using the IMD display mode in MetaFluor and assembled without further manipulation in Photoshop (Adobe). Raw data were acquired with MetaFluor and graphed in Origin (OriginLab). [Ca^2+]i was calculated using the following equation: [Ca^2+]i=Kd(R−Rmin)/(R−Rmax)×Sf2/Sf1, where Kd is the Fura2-AM dissociation constant at the two excitation wavelengths (F340/F380); Rmin is the fluorescence ratio in the presence of minimal calcium, obtained by chelating Ca^2+ with 10 mM EGTA; Rmax is the fluorescence ratio in the presence of excess calcium, obtained by treating cells with 1 μM ionomycin; Sf2 is the fluorescence of the Ca^2+-free form; and Sf1 is the fluorescence of the Ca^2+-bound form of Fura2-AM at excitation wavelengths of 380 and 340 nm, respectively. In some experiments cells were placed in a Ca^2+-free medium consisting of the HBSS described above in which CaCl2 was omitted and 100 μM EGTA was added in order to chelate residual Ca^2+ ions. This medium was added to the cells just before recording to avoid leak of the intracellular calcium stores.
# All cells were purchased from ATCC (Molsheim Cedex, France). T leukemic cell lines CEM, H9 and Jurkat were cultured in RPMI supplemented with 8% heat-inactivated FCS (v/v) and 2 mM L-glutamine at 37° C. in a 5% CO2 incubator. CEM-IRC cell expressing a low amount of plasma membrane CD95 was described in (Beneteau et al., 2007; Beneteau et al., 2008). […]
# T cells were loaded with Fura-PE3-AM (1 μM) at room temperature for 30 min in Hank's Balanced Salt Solution (HBSS). […] Cells were placed in the temperature controlled chamber (37° C.) of an inverted epifluorescence microscope (Olympus IX70) equipped with an ×40 UApo/340-1.15 W water-immersion objective (Olympus), and fluorescence micrograph images were captured at 510 nm and 12-bit resolution by a fast-scan camera (CoolSNAP fx Monochrome, Photometrics). […]
# Th17 cells = assay: Endothelial transmigration of CD4 T-cell subsets (Th17, Th1, Treg), Boyden chamber; type: cell-based, human; conditions: indicated concentrations of peptide, Boyden Chamber assay
# Method: Animal experiments were subject to ethical review by the University of Nottingham were appropriate and conducted using PPL 40/3412 in accordance with the UK Home Office guidance and under ASPA (1986). For the generation of murine T-cell subsets, spleens were removed from C57Bl/6 mice and single cell suspensions prepared. CD4^+CD62L^+ naïve cells were isolated using Miltenyi Biotec microbeads. Naïve human CD4^+ T-cells were prepared using the Miltenyi Biotec naïve CD4^+ T-cell isolation kit II, which are sorted produced a 99% pure population of CD4^+CD45RA^+ cells. Purified cells were cultured in complete IMDM media all with α-CD3 (1 μg/ml), α-CD28 (2 μg/ml), and as follows; Th1 cells IL-12 (10 ng/ml) with α-IL-4 (10 μg/ml), Th2 cells IL-4 (10 ng/ml) and α-IFN-γ (10 μg/ml), Th17 cells Il-6 (10 ng/ml), TGF-β1 (2 ng/ml), α-IFN-γ (10 μg/ml) with α-IL-4 (10 μg/ml), and Tregs IL-2 (10 ng/ml) TGF-β1 (5 ng/ml), α-IFN-γ (10 μg/ml) and α-IL-4 (10 μg/ml). Cells were converted to T-cell subsets over five days as outlined above. All cytokines were supplied by PeproTech (London, UK). Mouse CD3 (clone 2C11); human CD3 (UCHT1); mouse CD28 (37.51); human CD28 (CD28.2); mouse IL-4 (11B11); human IL-4 (MP4-25D2); mouse IFN-γ (XMG1.2); human IFN-γ B27 came from BD Pharmigen.
# After hydration of the Boyden chamber membranes containing 3 μm pore size membranes (Millipore, Molsheim, France), activated T-lymphocytes (10^6) were added to the top chamber on a confluent monolayer of HUVEC in a low serum (1%)-containing medium. […] In experiments using human sera, 500 μl of serum from either healthy donors or SLE patients was added in the lower reservoir. Cells were cultured for 24 h at 37° C. in a 5% CO2 humidified incubator. Transmigrated cells were counted in the lower reservoir by flow cytometry using a standard of 2.5×10^4 fluorescent beads (Flow-count, Beckman Coulter).
# Blocking antibodies were used against E-selectin and ICAM-1 in the CHEMICON® endothelial cell adhesion assay (Millipore). Briefly, after activation of the endothelial cell layer with TNF-α, anti-mouse Ig controls, anti-E-selectin or anti-ICAM-1 were added at final concentrations of 10 μg/ml. Thereafter calcein-AM-stained T-cell subsets were incubated for 24 hours and unbound cells are washed. Cells attached to the endothelium were assessed using fluorescence plate reader.
substance,measurement,setting,value
TAT-CID: cell penetrating peptide linking the 36-amino acid-stretch of CID (CD95 residues 175 to 210) to the HIV-TAT sequence; SEQ ID NO: 6 (RKKRRQRRRKRKEVQKTCRKHRKENQGSHESPTLNPETVAINLSD; TAT-CID),calcium response to cl-CD95L,[1],abrogated the CD95-mediated Ca^2+ response
same,calcium response to cl-CD95L,[1]; listed as TAT CID 175-210,greatly reduced the calcium response
same,CD95-mediated endothelial transmigration of Th17 cells,Th17 cells,inhibited the CD95-mediated endothelial transmigration of human Th17 cells in a dose-dependent manner
